In PubChem BioAssay (NCI):
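GI50 marks 50% less growth. TGI denotes the concentration required for complete inhibition of growth.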

What was measured:
Experiment in all cases: growth of human tumour cells (NCI), 384-well format; in the data active = GI50 below about 0.43 µM; inactive = the rest
[1] = tested on: SF-268 CNS
[2] = tested on: BT-549 breast
[3] = tested on: SW-620 colon
[4] = tested on: NCI-H322M lung
[5] = tested on: U251 glioblastoma
[6] = tested on: HOP-62 NSCLC
[7] = tested on: M14 melanoma
[8] = tested on: SF-539 CNS
[9] = tested on: MALME-3M melanoma
[10] = tested on: OVCAR-5 ovarian
[11] = tested on: CCRF-CEM leukemia
[12] = tested on: HCT-15 colon
[13] = tested on: SR leukemia
[14] = tested on: HCT-116 colon
[15] = tested on: SNB-75 CNS
[16] = tested on: LOX IMVI melanoma
[17] = tested on: OVCAR-4 ovarian
[18] = tested on: UACC-257 melanoma
[19] = tested on: 786-0 renal
[20] = tested on: RPMI-8226 leukemia
[21] = tested on: A498 renal
[22] = tested on: RXF 393 renal
[23] = tested on: HCC-2998 colon
[24] = tested on: NCI-H23 lung
[25] = tested on: MDA-MB-231 breast
[26] = tested on: OVCAR-3 ovarian
[27] = tested on: A549 NSCLC
[28] = tested on: PC-3 prostate
[29] = tested on: SNB-19 CNS
[30] = tested on: ACHN renal
[31] = tested on: UACC-62 melanoma
[32] = tested on: EKVX NSCLC
[33] = tested on: SK-MEL-5 melanoma
[34] = tested on: HL-60(TB) leukemia
[35] = tested on: NCI-H460 NSCLC
[36] = tested on: SK-MEL-2 melanoma
[37] = tested on: MDA-MB-468 breast
[38] = tested on: OVCAR-8 ovarian
[39] = tested on: HT29 colon
[40] = tested on: SN12C renal
[41] = tested on: KM12 colon
[42] = tested on: MOLT-4 leukemia
[43] = tested on: K-562 leukemia
[44] = tested on: MCF7 breast
[45] = tested on: HS 578T breast
[46] = tested on: CAKI-1 renal
[47] = tested on: HOP-92 NSCLC

COCCOc1cc(F)c2c(Nc3ccc(NC(=O)Cn4cc(C(C)C)nn4)cc3)ncnc2c1
inactive: GI50 [1] 43.1 µM | GI50 [2] 38.4 µM | GI50 [3] 52 µM | GI50 [4] > 100 µM | GI50 [5] 57.9 µM | GI50 [6] 18.1 µM | GI50 [7] 59 µM | GI50 [8] 11.6 µM | GI50 [9] 25 µM | GI50 [10] 87.8 µM | GI50 [11] 7.64 µM | GI50 [12] 24.9 µM | GI50 [13] 10.1 µM | GI50 [14] 48.7 µM | GI50 [15] 11.9 µM | GI50 [16] 43.6 µM | GI50 [17] > 100 µM | GI50 [18] 60.6 µM | GI50 [19] 49.7 µM | GI50 [20] 5.06 µM | GI50 [21] 79.9 µM | GI50 [22] 39.8 µM | GI50 [23] 29.3 µM | GI50 [24] 35.6 µM | GI50 [25] 30.5 µM | GI50 [26] 50.7 µM | GI50 [27] 53.2 µM | GI50 [28] 62.9 µM | GI50 [29] > 100 µM | GI50 [30] > 100 µM | GI50 [31] 31.1 µM | GI50 [32] 41 µM | GI50 [33] 11.2 µM | GI50 [34] 17.3 µM | GI50 [35] 31.7 µM | GI50 [36] 66.7 µM | GI50 [37] 7.69 µM | GI50 [38] 26.7 µM | GI50 [39] > 100 µM | GI50 [40] 12.9 µM | GI50 [41] 0.56 µM | GI50 [42] 3.68 µM | GI50 [43] 3.25 µM | GI50 [44] 21.9 µM | GI50 [45] 12.2 µM | GI50 [46] 38.4 µM | GI50 [47] 30.7 µM
37.9 µM: TGI [11] | TGI [34]
34.3 µM: TGI [20]
82.3 µM: TGI [45]
18.7 µM: TGI [42]
41.5 µM: TGI [13]
> 100 µM: TGI [1] | TGI [2] | TGI [3] | TGI [4] | TGI [5] | TGI [6] | TGI [7] | TGI [8] | TGI [9] | TGI [10] | TGI [12] | TGI [14] | TGI [15] | TGI [16] | TGI [17] | TGI [18] | TGI [19] | TGI [21] | TGI [22] | TGI [23] | TGI [24] | TGI [25] | TGI [26] | TGI [27] | TGI [28] | TGI [29] | TGI [30] | TGI [31] | TGI [32] | TGI [33] | TGI [35] | TGI [36] | TGI [37] | TGI [38] | TGI [39] | TGI [40] | TGI [41] | TGI [43] | TGI [44] | TGI [46] | TGI [47]
